Measurements as given in the CheMixHub viscosity set.

Assay: xn = mol fraction of the nth substance listed

Cn1ccnc1 + CO
viscosity [mPa·s]
Conditions	298.15 K	308.15 K	318.15 K
100 kPa, x1 = 0.0511	0.6235	0.5549	0.4923
100 kPa, x1 = 0.1008	0.7071	0.6136	0.5376
100 kPa, x1 = 0.1961	0.8597	0.7399	0.6379
100 kPa, x1 = 0.279	0.9763	0.8372	0.7265
100 kPa, x1 = 0.3965	1.159	0.9854	0.849
100 kPa, x1 = 0.5013	1.298	1.098	0.942
100 kPa, x1 = 0.6101	1.429	1.203	1.029
100 kPa, x1 = 0.6941	1.514	1.277	1.088
100 kPa, x1 = 0.7955	1.607	1.348	1.151
100 kPa, x1 = 0.8414	1.645	1.377	1.174
100 kPa, x1 = 0.9501	1.727	1.445	1.23
101 kPa, x1 = 0.0502	–	0.5358	–
101 kPa, x1 = 0.1011	–	0.5959	–
101 kPa, x1 = 0.2	–	0.7153	–
101 kPa, x1 = 0.3006	–	0.8325	–
101 kPa, x1 = 0.4	–	0.9415	–
101 kPa, x1 = 0.4999	–	1.039	–
101 kPa, x1 = 0.5999	–	1.128	–
101 kPa, x1 = 0.7002	–	1.207	–
101 kPa, x1 = 0.7985	–	1.278	–
101 kPa, x1 = 0.8958	–	1.336	–
101 kPa, x1 = 0.9433	–	1.359	–

O=C1c2ccccc2C(=O)C1(O)O + CCCC[N+](CCCC)(CCCC)CCCC.O=S(=O)([O-])O
Conditions	viscosity [mPa·s]
323.15 K, 100 kPa, x2 = 0.571	48500
